pEC50, pIC50: −log10 of the molar value. Where a name gives a salt, the structure may show the parent alone.
Assays:
[1] = target: T1, human M3 muscarinic receptor (Homo sapiens, UniProt P20309); test: Inhibitory effect on methacholine-induced calcium influx, FLIPR assay, CHO-K1 cells stably expressing the human M3 muscarinic receptor; type: cell-based; conditions: inhibition of calcium influx induced by methacholine
T1 construct: expressed in transfected cells; host or cells: CHO-K1
Excerpt: Muscarinic receptor subtypes (M1, M3 and M5 receptors), which couple to Gq proteins, activate the phospholipase C (PLC) pathway upon agonist binding to the receptor. As a result, the activated PLC hydrolyzes phosphatidyl inositol diphosphate (PIP2) to diacyl glycerol (DAG) and […] (IP3), which in turn generates calcium release from intracellular stores, i.e., endoplasmic and sarcoplasmic reticula. By utilizing FLIPR (Molecular Devices, Inc.) assay in which a calcium sensitive dye (Component A) is used that fluoresces when free calcium binds, the increase in intracellular calcium is measured on the basis of the change in the fluorescence intensity.
Methacholine was added to CHO-K1 cells stably expressing the human M3 muscarinic receptor to induce calcium influx and evaluate the inhibitory effect of test compounds. In the experiment, a FLIPR Calcium assay kit (Molecular Devices, Inc.) was used.
CHO-K1 cells stably expressing the human M3 muscarinic receptor suspended in Ham's F-12 media (Invitrogen, Co.) containing 10% fetal bovine serum (FBS) were seeded into 96-well FLIPR plates at a volume of 100 μL/well. Next day, 60 μL/well of Non-wash-dye solution (Hank's buffered salt solution, HBSS, containing 20 mM HEPES and 6.5 mM probenecid) was added to the cells, which were then incubated for an hour at 37° C. in the presence of 5% carbon dioxide. 20 μL of 10 concentrations of test compound solutions (HBSS containing 1% DMSO, 20 mM HEPES, 2.5 mM probenecid and 0.05% bovine serum albumin, BSA) prepared at concentrations in a range of 0.01-1000 nM with 2-fold serial dilution) were added, followed by incubation for 180 seconds. Then, 20 μL of 30 nM methacholine solution (HBSS containing 20 mM HEPES, 2.5 mM probenecid and 0.05% bovine serum albumin, BSA) was added, and fluorescence intensity was traced by the intracellular calcium influx measuring device FLIPR 96 (Molecular Devices, Inc.) for 170 seconds. The difference between the lowest and the highest values of the fluorescence intensity (FI) over the period of the measurement was used as a measured value. The percentages of inhibition by the test compounds were calculated according to the following formula from the measured value of the methacholin-added and test compound non-added sample (FIpositive), the measured value of the methacholin non-added and test compound non-added sample (FInegative), and the measured value of the methacholin-added and test compound-added sample (FItest). (%) Percentage of inhibition by test compound=[(1−(FItest−FInegative)/(FIpositive−FInegative)]×100
The 50% inhibitory concentrations (IC50 values) of test compounds were analyzed by a four-parameter logistic model using XLfit4 (IDBS, Ltd.) for the percentage of the inhibition by different concentrations of test compounds.

[2] = target: T2, human β2 adrenergic receptor (Homo sapiens, UniProt P07550); test: Whole-cell cAMP Flashplate assay using CHO-K1 cells stably expressing human β2 adrenergic receptor; type: cell-based; conditions: cAMP production
T2 construct: expressed in transfected cells; host or cells: CHO-K1
T2 sequence (P07550 whole entry): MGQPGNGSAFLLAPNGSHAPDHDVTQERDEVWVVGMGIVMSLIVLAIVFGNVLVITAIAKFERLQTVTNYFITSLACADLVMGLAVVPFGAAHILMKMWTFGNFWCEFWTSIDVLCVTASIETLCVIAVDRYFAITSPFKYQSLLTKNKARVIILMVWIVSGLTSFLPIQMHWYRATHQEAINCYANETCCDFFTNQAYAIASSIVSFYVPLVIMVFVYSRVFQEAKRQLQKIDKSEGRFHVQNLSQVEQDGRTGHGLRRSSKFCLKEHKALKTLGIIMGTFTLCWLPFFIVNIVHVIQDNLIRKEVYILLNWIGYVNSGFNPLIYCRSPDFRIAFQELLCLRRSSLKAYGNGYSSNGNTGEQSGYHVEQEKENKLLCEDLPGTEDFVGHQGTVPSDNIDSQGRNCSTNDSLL
Experimental: The β2 adrenergic receptor, which couples to Gs proteins, activates adenylate cyclase upon agonist binding to the receptor. As a result, cAMP is produced in cells. The activation ability of the β2 adrenergic receptor can be measured by measuring the amount of the cAMP with cAMP-Screen System (Applied Biosystems).
CHO-K1 cells expressing the human β2 adrenergic receptor suspended in Ham's F-12 media containing 10% FBS were seeded into 96-well plates at a volume of 100 μL/well. Next day, they were washed with 200 μL PBS(−), to which 80 μL of 0.5 mM IBMX solution (Ham's F-12 media containing 0.05% BSA) was then added, followed by incubation for 20 minutes at 37° C. in the presence of 5% carbon dioxide. 20 μL of 9 concentrations of test compound solutions (0.5 mM IBMX solution containing 1% DMSO) prepared at concentrations in a range of 0.01-1000 nM with 2-fold serial dilution) were added, followed by incubation for 20 minutes at 37° C. in the presence of 5% carbon dioxide. Then, 100 μL of Assay/Lysis Buffer (a reagent that comes with cAMP Screen System) was added. The cells were lysed by pipetting, further incubated for 30 minutes at 37° C., and then frozen at −80° C. After several days, samples, thawed at room temperature, were treated according to the protocol of cAMP Screen System, and then chemiluminescence was measured by EnVision (PerkinElmer, Inc.). The amount of cAMP was calculated from the standard curve for the standard attached to cAMP Screen System.
The concentrations of a test compound at which 50% of its maximal effect is reached (EC50 values) were analyzed by a four-parameter logistic model using XLfit4 (IDBS, Ltd.) for the amounts of cAMP production at different concentrations of the test compounds.

T1 sequence (P20309 whole entry): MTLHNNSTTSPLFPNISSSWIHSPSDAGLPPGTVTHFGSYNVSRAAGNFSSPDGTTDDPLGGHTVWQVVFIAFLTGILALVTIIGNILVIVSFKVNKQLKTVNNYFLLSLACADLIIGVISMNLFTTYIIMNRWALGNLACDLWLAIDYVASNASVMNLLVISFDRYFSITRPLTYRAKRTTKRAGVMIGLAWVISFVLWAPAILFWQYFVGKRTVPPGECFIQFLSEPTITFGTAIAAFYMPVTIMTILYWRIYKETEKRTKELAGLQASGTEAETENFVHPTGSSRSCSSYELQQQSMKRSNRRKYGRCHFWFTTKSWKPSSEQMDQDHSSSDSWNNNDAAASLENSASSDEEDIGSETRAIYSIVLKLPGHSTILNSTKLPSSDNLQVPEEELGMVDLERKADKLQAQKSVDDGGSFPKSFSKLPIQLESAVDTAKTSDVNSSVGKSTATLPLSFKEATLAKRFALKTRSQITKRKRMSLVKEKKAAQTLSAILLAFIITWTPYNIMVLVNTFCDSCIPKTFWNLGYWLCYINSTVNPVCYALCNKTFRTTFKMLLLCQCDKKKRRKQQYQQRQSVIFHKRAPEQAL

SMILES | pIC50 [1] | pEC50 [2]
C[N+]1(C)[C@@H]2CC(OC(=O)Nc3cc(CCCC(=O)Nc4ccc(CNC[C@H](O)c5ccc(O)c6[nH]c(=O)ccc56)cc4Cl)ccc3-c3ccccc3)C[C@H]1[C@@H]1O[C@@H]12 (stereo partly drawn) [Example 37, (1R,2R,4S,5S,7S)-7-({[5-(3-{[2-chloro-4-({[(2R)-2-hydroxy-2-(8-hydroxy-2-oxo-1,2-dihydroquinolin-5-yl)ethyl]amino}methyl)phenyl]carbamoyl}propyl)-2-phenylphenyl]carbamoyl}oxy)-9,9-dimethyl-3-oxa-9-azatricyclo[3.3.1.0^2,4]nonan-9-ium trifluoroacetate] | 7.74 | 8.40
C[N+]1(C)CCC(OC(=O)Nc2cc(CCCC(=O)Nc3ccc(CNC[C@H](O)c4ccc(O)c5[nH]c(=O)ccc45)cc3Br)ccc2-c2ccccc2)CC1 [Example 30, 4-({[5-(3-{[2-bromo-4-({[(2R)-2-hydroxy-2-(8-hydroxy-2-oxo-1,2-dihydroquinolin-5-yl)ethyl]amino}methyl)phenyl]carbamoyl}propyl)-2-phenylphenyl]carbamoyl}oxy)-1,1-dimethylpiperidin-1-ium trifluoroacetate] | 7.89 | 9.30
COc1cc(NC(=O)CCc2ccc(-c3ccccc3)c(NC(=O)O[C@@H]3C[C@@H]4[C@H]5O[C@H]5[C@H](C3)[N+]4(C)C)c2)c(Cl)cc1CNC[C@H](O)c1ccc(O)c2[nH]c(=O)ccc12 [Example 46, (1R,2R,4S,5S,7S)-7-({[5-(2-{[2-chloro-4-({[(2R)-2-hydroxy-2-(8-hydroxy-2-oxo-1,2-dihydroquinolin-5-yl)ethyl]amino}methyl)-5-methoxyphenyl]carbamoyl}ethyl)-2-phenylphenyl]carbamoyl}oxy)-9,9-dimethyl-3-oxa-9-azatricyclo[3.3.1.0^2,4]nonan-9-ium trifluoroacetate] | 7.78 | 8.85
COc1cc(NC(=O)CCCc2ccc(NC(=O)O[C@@H]3C[C@@H]4[C@H]5O[C@H]5[C@H](C3)[N+]4(C)C)c(-c3ccccc3)c2)c(Cl)cc1CNC[C@H](O)c1ccc(O)c2[nH]c(=O)ccc12 [Example 55, (1R,2R,4S,5S,7S)-7-({[4-(3-{[2-chloro-4-({[(2R)-2-hydroxy-2-(8-hydroxy-2-oxo-1,2-dihydroquinolin-5-yl)ethyl]amino}methyl)-5-methoxyphenyl]carbamoyl}propyl)-2-phenylphenyl]carbamoyl}oxy)-9,9-dimethyl-3-oxa-9-azatricyclo[3.3.1.0^2,4]nonan-9-ium trifluoroacetate] | 7.29 | 9.70
C[N+]1(C)[C@@H]2CC(OC(=O)Nc3cc(CCC(=O)Nc4ccc(CNC[C@H](O)c5ccc(O)c6[nH]c(=O)ccc56)cc4Cl)ccc3-c3ccccc3)C[C@H]1[C@@H]1O[C@@H]12 (stereo partly drawn) [Example 44, (1R,2R,4S,5S,7S)-7-({[5-(2-{[2-chloro-4-({[(2R)-2-hydroxy-2-(8-hydroxy-2-oxo-1,2-dihydroquinolin-5yl)ethyl]amino}methyl)phenyl]carbamoyl}ethyl)-2-phenylphenyl]carbamoyl}oxy)-9,9-dimethyl-3-oxa-9-azatricyclo[3.3.1.0^2,4]nonan-9-ium trifluoroacetate] | 7.86 | 8.77

More lines, now with the values ahead:

pIC50 [1] | pEC50 [2] | SMILES
7.79 | 8.01 | C[N+]1(C)CCC(OC(=O)Nc2cc(CCC(=O)Nc3ccc(CNC[C@H](O)c4ccc(O)c5[nH]c(=O)ccc45)c(Cl)c3)ccc2-c2ccccc2)CC1 [Example 3, 4-({[5-(2-{[3-chloro-4-({[(2R)-2-hydroxy-2-(8-hydroxy-2-oxo-1,2-dihydroquinolin-5-yl)ethyl]amino}methyl)phenyl]carbamoyl}ethyl)-2-phenylphenyl]carbamoyl}oxy)-1,1-dimethylpiperidin-1-ium trifluoroacetate]
7.93 | 8.18 | C[N+]1(C)CCC(OC(=O)Nc2cc(CCCC(=O)Nc3ccc(CNC[C@H](O)c4ccc(O)c5[nH]c(=O)ccc45)cn3)ccc2-c2ccccc2)CC1 [Example 24, 4-({[5-(3-{[5-({[(2R)-2-hydroxy-2-(8-hydroxy-2-oxo-1,2-dihydroquinolin-5-yl)ethyl]amino}methyl)pyridin-2-yl]carbamoyl}propyl)-2-phenylphenyl]carbamoyl}oxy)-1,1-dimethylpiperidin-1-ium trifluoroacetate]
7.68 | 9.05 | C[N+]1(C)CCC(OC(=O)Nc2ccc(CCCC(=O)Nc3ccc(CNC[C@H](O)c4ccc(O)c5[nH]c(=O)ccc45)cc3)cc2-c2ccccc2)CC1 [Example 54, 4-({[4-(3-{[4-({[(2R)-2-hydroxy-2-(8-hydroxy-2-oxo-1,2-dihydroquinolin-5-yl)ethyl]amino}methyl)phenyl]carbamoyl}propyl)-2-phenylphenyl]carbamoyl}oxy)-1,1-dimethylpiperidin-1-ium trifluoroacetate]
7.79 | 8.82 | CCOc1cc(NC(=O)CCCc2ccc(-c3ccccc3)c(NC(=O)OC3CC[N+](C)(C)CC3)c2)ccc1CNC[C@H](O)c1ccc(O)c2[nH]c(=O)ccc12 [Example 27, 4-({[5-(3-{[5-ethoxy-4-({[(2R)-2-hydroxy-2-(8-hydroxy-2-oxo-1,2-dihydroquinolin-5-yl)ethyl]amino}methyl)phenyl]carbamoyl}propyl)-2-phenylphenyl]carbamoyl}oxy)-1,1-dimethylpiperidin-1-ium trifluoroacetate]
7.60 | 8.06 | C[N+]1(C)CCC(OC(=O)Nc2cc(CNC(=O)COc3ccc(CNC[C@H](O)c4ccc(O)c5[nH]c(=O)ccc45)cc3)ccc2-c2ccccc2)CC1 [Example 81, 4-({[5-({2-[4-({[(2R)-2-hydroxy-2-(8-hydroxy-2-oxo-1,2-dihydroquinolin-5-yl)ethyl]amino}methyl)phenoxy]acetamide}methyl)-2-phenylphenyl]carbamoyl}oxy)-1,1-dimethylpiperidin-1-ium trifluoroacetate]
7.72 | 8.09 | C[N+]1(C)CCC(OC(=O)Nc2cc(CCC(=O)Nc3cc(F)c(CNC[C@H](O)c4ccc(O)c5[nH]c(=O)ccc45)cc3F)ccc2-c2ccccc2)CC1 [Example 5, 4-({[5-(2-{[2,5-difluoro-4-({[(2R)-2-hydroxy-2-(8-hydroxy-2-oxo-1,2-dihydroquinolin-5-yl)ethyl]amino}methyl)phenyl]carbamoyl}ethyl)-2-phenylphenyl]carbamoyl}oxy)-1,1-dimethylpiperidin-1-ium trifluoroacetate]
7.79 | 8.08 | C[N+]1(C)CCC(OC(=O)Nc2cc(CCCC(=O)Nc3ccc(CNC[C@H](O)c4ccc(O)c5[nH]c(=O)ccc45)cc3)ccc2-c2ccccc2)CC1 [Example 32, 4-({[5-(3-{[4-({[(2R)-2-hydroxy-2-(8-hydroxy-2-oxo-1,2-dihydroquinolin-5-yl)ethyl]amino}methyl)phenyl]carbamoyl}propyl)-2-phenylphenyl]carbamoyl}oxy)-1,1-dimethylpiperidin-1-ium trifluoroacetate]

Source: patent US9072734B2, “Quaternary ammonium salt compounds” (Teijin Pharma Limited, priority 2009, dated 2015)
